Source: the supplement of paper PMC7023306
± gives the uncertainty stated by the source.

Assay: TIMS collision cross section in N2 (TIMS CCS N2); higher = larger gas-phase ion size
Details: ion species: [2M-H]-; drift gas: N2 (99.4% N2, 0.6% O2); calibration: Stow et al. 2017 values for Agilent ESI-L Low Concentration Tune Mix; ionization: negative ESI
Procedure: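 Authentic plant natural product standards (10-50 ppm in 80% methanol) were analysed by UHPLC (BEH C18, 60 °C) coupled to a Bruker timsTOF Pro in negative ESI with N2 drift gas. TIMS collision cross sections were computed from mobility peak apices after calibration with Agilent Tune Mix using Stow et al. reference values. Values are the average of triplicate runs on different days, reported per annotated ion species (deprotonated ion, adducts, dimer, oxidized ion).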

Structure (SMILES)	TIMS collision cross section in N2 [Å²]
O=c1c(-c2ccc(O)c(O)c2)coc2cc(O)ccc12 [3',4',7-Trihydroxyisoflavone]	217.7 ± 0.21
COc1ccc(C2CC(=O)c3ccc(O)cc3O2)cc1OC (stereo not given) [3',4'-Dimethoxy-7-hydroxyflavanone]	241.38 ± 0.035
O=c1cc(-c2cccc(O)c2)oc2ccccc12 [3'-Hydroxyflavone]	218.5 ± 0.57
COc1ccc(-c2cc3ccc(O)cc3oc2=O)cc1OC [3(3',4'-Dimethoxyphenyl)-7-hydroxycoumarin]	276.72 ± 0.47
O=c1cc(-c2ccc(O)c(O)c2)oc2cccc(O)c12 [5,3',4'-Trihydroxyflavone]	244.46 ± 0.1
COc1ccccc1-c1cc(=O)c2c(O)cc(O)cc2o1 [5,7-Dihydroxy-2'-methoxyflavone]	238.49 ± 0.23
COc1ccc(C2CC(=O)c3c(O)cc(O)cc3O2)cc1OC (stereo not given) [5,7-dihydroxy-3',4'-dimethoxy-flavanone]	238.03 ± 0.5
O=c1c(-c2ccc(O)cc2)coc2cc(O)c(O)cc12 [6,7,4'-Trihydroxyisoflavone]	249.43 ± 0.37
O=C1CC(c2ccccc2)Oc2ccc(O)cc21 (stereo not given) [6-Hydroxyflavanone]	244.54 ± 0.11
O=c1cc(-c2ccccc2)oc2ccc(O)cc12 [6-Hydroxyflavone]	239.79 ± 0.056
CC(C)=CCC/C(C)=C/Cc1c(O)cc2c(c1O)C(=O)C[C@@H](c1ccc(O)cc1)O2 [6-geranylnaringenin]	275.87 ± 0.17
CC(C)=CCc1c(O)cc2c(c1O)C(=O)C[C@@H](c1ccc(O)cc1)O2 [6-prenylnaringenin]	235.03 ± 0.42
O=c1cc(-c2ccc(O)cc2)oc2cc(O)ccc12 [7,4'-dihydroxyflavone]	221.31 ± 0.038
COc1cccc(-c2cc(=O)c3ccc(O)cc3o2)c1 [7-Hydroxy-3'-methoxyflavone]	229.62 ± 0.17
COc1ccc(-c2cc(=O)c3ccc(O)cc3o2)cc1 [7-Hydroxy-4'-methoxyflavone]	231.78 ± 0.34
O=c1cc(-c2ccccc2)oc2cc(O)ccc12 [7-Hydroxyflavone]	228.17 ± 0.39

Same assay, conditions: ion species: [M-3H]-; drift gas: N2 (99.4% N2, 0.6% O2); calibration: Stow et al. 2017 values for Agilent ESI-L Low Concentration Tune Mix; ionization: negative ESI

Structure (SMILES)	TIMS collision cross section in N2 [Å²]
O=c1c(-c2ccc(O)c(O)c2)coc2cc(O)ccc12 [3',4',7-Trihydroxyisoflavone]	155.92 ± 0.067
O=c1c(O)c(-c2cccc(O)c2O)oc2ccc(O)cc12 [3,6,2',3'-Tetrahydroxyflavone]	161.13 ± 0.17
O=c1c(O)c(-c2cc(O)c(O)c(O)c2)oc2cc(O)ccc12 [3,7,3',4',5'-Pentrahydroxyflavone (robinetin)]	160.55 ± 0.095
O=C1c2ccc(O)cc2O[C@H](c2ccc(O)c(O)c2)[C@H]1O [3,7,3',4'-Tetrahydroxyflavanone (fustin)]	160.22 ± 0.11
COc1ccc(C2CC(=O)c3c(ccc(O)c3O)O2)cc1OC (stereo not given) [5,6-dihydroxy-3',4'-dimethoxy-flavanone]	179.11 ± 0.078
COc1ccc(-c2cc(=O)c3c(O)cc(O)cc3o2)cc1 [5,7-Dihydroxy-4'-methoxyflavone]	165.19 ± 0.13
O=C1CC(c2ccc(O)c(O)c2)Oc2cc(O)c(O)cc21 (stereo not given) [6,7,3',4'-Tetrahydroxyflavanone]	161.92 ± 0.36
O=c1c(-c2ccc(O)c(O)c2)coc2cc(O)ccc12 [7,3',4'-TRIHYDROXYISOFLAVONE]	156.67 ± 0.24

Same assay, conditions: ion species: [M-H+Na+HCO2H]-; drift gas: N2 (99.4% N2, 0.6% O2); calibration: Stow et al. 2017 values for Agilent ESI-L Low Concentration Tune Mix; ionization: negative ESI

Structure (SMILES)	TIMS collision cross section in N2 [Å²]
O=c1c(O)c(-c2ccc(O)cc2O)oc2ccc(O)cc12 [3,6,2',4'-Tetrahydroxyflavone]	183.33 ± 0.05
O=c1c(O)c(-c2ccccc2)oc2ccccc12 [3-Hydroxyflavone]	172.34 ± 0.36
COc1ccc(C2CC(=O)c3c(ccc(O)c3O)O2)cc1OC (stereo not given) [5,6-dihydroxy-3',4'-dimethoxy-flavanone]	192.04 ± 0.13
COc1cc(-c2cc(=O)c3c(O)c(OC)c(O)cc3o2)cc(OC)c1O [5,7,4'-trihydroxy-6,3',5'-trimethoxyflavone]	202.32 ± 0.32
COc1ccc(C2CC(=O)c3c(O)cc(O)cc3O2)cc1OC (stereo not given) [5,7-dihydroxy-3',4'-dimethoxy-flavanone]	195.74 ± 0.19
COc1ccc(C2CC(=O)c3c(O)cccc3O2)cc1OC (stereo not given) [5-Hydroxy-3',4'-dimethoxyflavanone]	187.65 ± 0.61
O=c1cc(-c2ccccc2)oc2cccc(O)c12 [5-Hydroxyflavone]	173.98 ± 0.31
COc1ccc(-c2oc3cc(OC)ccc3c(=O)c2O)cc1 [7,4'-Dimethoxy-3-hydroxyflavone]	193.67 ± 0.15
COc1ccc(C2CC(=O)c3c(O)cc(OC)cc3O2)cc1 (stereo not given) [7,4'-Dimethoxy-5-hydroxyflavanone]	194.46 ± 0.47

Same assay, conditions: ion species: [M-H]-; drift gas: N2 (99.4% N2, 0.6% O2); calibration: Stow et al. 2017 values for Agilent ESI-L Low Concentration Tune Mix; ionization: negative ESI

Structure (SMILES)	TIMS collision cross section in N2 [Å²]
Oc1cc(O)c2c(c1)OC(c1ccc(O)c(O)c1)C(O)C2 (single isomer, unassigned; (+)) [(+)-Catechin]	157.43 ± 0.095
O=C(/C=C/c1ccccc1)c1ccc(O)cc1O [2',4'-Dihydroxychalcone]	158.57 ± 0.14
COc1ccc(C(=O)/C=C/c2ccccc2)c(O)c1 [2'-Hydroxy-4'-methoxychalcone]	163.91 ± 0.055
COc1ccc(C=CC(=O)c2ccccc2O)cc1 [2'-Hydroxy-4-methoxychalcone]	164.38 ± 0.046
O=c1cc(-c2ccccc2O)oc2ccccc12 [2'-Hydroxyflavone]	149.95 ± 0.12
O=c1c(-c2ccc(O)c(O)c2)coc2cc(O)ccc12 [3',4',7-Trihydroxyisoflavone]	161.78 ± 0.026
COc1ccc(C2CC(=O)c3ccc(O)cc3O2)cc1OC (stereo not given) [3',4'-Dimethoxy-7-hydroxyflavanone]	180.72 ± 0.067
O=c1cc(-c2cccc(O)c2)oc2ccccc12 [3'-Hydroxyflavone]	154.89 ± 0.41
COc1ccc(-c2cc3ccc(O)cc3oc2=O)cc1OC [3(3',4'-Dimethoxyphenyl)-7-hydroxycoumarin]	172.02 ± 0.17
O=c1c(O)c(-c2cccc(O)c2O)oc2ccc(O)cc12 [3,6,2',3'-Tetrahydroxyflavone]	161.7 ± 0.14
O=c1c(O)c(-c2ccc(O)cc2O)oc2ccc(O)cc12 [3,6,2',4'-Tetrahydroxyflavone]	161.99 ± 0.064
O=c1c(O)c(-c2cc(O)c(O)c(O)c2)oc2cc(O)ccc12 [3,7,3',4',5'-Pentrahydroxyflavone (robinetin)]	164.55 ± 0.2
O=C1c2ccc(O)cc2O[C@H](c2ccc(O)c(O)c2)[C@H]1O [3,7,3',4'-Tetrahydroxyflavanone (fustin)]	154.57 ± 0.12
CC1(C)CCC2(C(=O)OC3OC(CO)C(O)C(O)C3O)CCC3(C)C(=CCC4C5(C)CC(O)C(OC6OC(CO)C(O)C(O)C6O)C(C)(C(=O)O)C5CCC43C)C2C1 (stereo not given) [3-Glc, 28-Glc medicagenic acid]	300.86 ± 0.71
O=c1c(O)c(-c2ccccc2)oc2ccccc12 [3-Hydroxyflavone]	152.04 ± 0.28
O=c1cc(-c2ccc(O)cc2)oc2ccccc12 [4'-Hydroxyflavone]	151.91 ± 0.13
COc1cc(OC)c(C(=O)C=Cc2ccc(O)cc2)c(OC)c1 [4-Hydroxy-2',4',6'-trimethoxychalcone (flavokawain A)]	182.42 ± 0.24
O=c1cc(-c2ccc(O)c(O)c2)oc2cccc(O)c12 [5,3',4'-Trihydroxyflavone]	156.4 ± 0.18
COc1ccc(C2CC(=O)c3c(ccc(O)c3O)O2)cc1OC (stereo not given) [5,6-dihydroxy-3',4'-dimethoxy-flavanone]	176.56 ± 0.17
COc1cc(-c2cc(=O)c3c(O)c(OC)c(O)cc3o2)cc(OC)c1O [5,7,4'-trihydroxy-6,3',5'-trimethoxyflavone]	183.59 ± 0.17
COc1cc(OC)c2c(c1)OC(c1ccc(O)cc1)CC2=O (stereo not given) [5,7-DIMETHOXY-4'-HYDROXYFLAVANONE]	174.1 ± 0.31

Structure (SMILES)	TIMS collision cross section in N2 [Å²]
COc1ccccc1-c1cc(=O)c2c(O)cc(O)cc2o1 [5,7-Dihydroxy-2'-methoxyflavone]	167.34 ± 0.07
COc1ccc(-c2cc(=O)c3c(O)cc(O)cc3o2)cc1 [5,7-Dihydroxy-4'-methoxyflavone]	170.87 ± 0.1
COc1ccc(C2CC(=O)c3c(O)cc(O)cc3O2)cc1OC (stereo not given) [5,7-dihydroxy-3',4'-dimethoxy-flavanone]	175.95 ± 0.1
O=C1CC(c2ccccc2)Oc2c(O)ccc(O)c21 (stereo not given) [5,8-Dihydroxyflavanone]	158.38 ± 0.01
COc1ccc(C2CC(=O)c3c(O)cccc3O2)cc1OC (stereo not given) [5-Hydroxy-3',4'-dimethoxyflavanone]	174.21 ± 0.21
COc1cc(/C=C/C(=O)O)cc(O)c1O [5-Hydroxyferulic acid]	141.26 ± 0.044
O=c1cc(-c2ccccc2)oc2cccc(O)c12 [5-Hydroxyflavone]	156 ± 0.14
O=C1CC(c2ccc(O)c(O)c2)Oc2cc(O)c(O)cc21 (stereo not given) [6,7,3',4'-Tetrahydroxyflavanone]	167.53 ± 0.27
O=c1c(-c2ccc(O)cc2)coc2cc(O)c(O)cc12 [6,7,4'-Trihydroxyisoflavone]	159.49 ± 0.16
CC(C)=CCc1c(O)c(CC=C(C)C)c2c(c1O)C(=O)C[C@@H](c1ccc(O)cc1)O2 [6,8-diprenylnaringenin]	206.73 ± 0.66
O=C1CC(c2ccccc2)Oc2ccc(O)cc21 (stereo not given) [6-Hydroxyflavanone]	156.92 ± 0.15
O=c1cc(-c2ccccc2)oc2ccc(O)cc12 [6-Hydroxyflavone]	155.92 ± 0.15
CC(C)=CCC/C(C)=C/Cc1c(O)cc2c(c1O)C(=O)C[C@@H](c1ccc(O)cc1)O2 [6-geranylnaringenin]	204.76 ± 0.16
CC(C)=CCc1c(O)cc2c(c1O)C(=O)C[C@@H](c1ccc(O)cc1)O2 [6-prenylnaringenin]	183.64 ± 0.61
O=c1cc(-c2cc(O)c(O)c(O)c2)oc2cc(O)ccc12 [7,3',4',5'-Tetrahydroxyflavone]	161.92 ± 0.042
O=c1c(-c2ccc(O)c(O)c2)coc2cc(O)ccc12 [7,3',4'-TRIHYDROXYISOFLAVONE]	162.61 ± 0.21
COc1ccc(C2CC(=O)c3c(O)cc(OC)cc3O2)cc1 (stereo not given) [7,4'-Dimethoxy-5-hydroxyflavanone]	175.55 ± 0.29
O=c1cc(-c2ccc(O)cc2)oc2cc(O)ccc12 [7,4'-dihydroxyflavone]	157.01 ± 0.16
COc1cccc(-c2cc(=O)c3ccc(O)cc3o2)c1 [7-Hydroxy-3'-methoxyflavone]	165.22 ± 0.11
COc1ccc(-c2cc(=O)c3ccc(O)cc3o2)cc1 [7-Hydroxy-4'-methoxyflavone]	165.03 ± 0.085
O=c1cc(-c2ccccc2)oc2cc(O)ccc12 [7-Hydroxyflavone]	153.67 ± 0.056
